The values that follow come from US8487108B2, “Piperidinyl carbamate intermediates for the synthesis of aspartic protease inhibitors” (Vitae Pharmaceuticals, Inc., priority 2005, dated 2013).

Broadly, the IC50 is the concentration that gives 50% inhibition.

The structures appear in SMILES notation. A value given as a limit tells only on which side of the number the result lay.

The target in this test is T1, trypsin-activated recombinant human renin (Homo sapiens, UniProt P00797).
T1 sequence (P00797 67-406): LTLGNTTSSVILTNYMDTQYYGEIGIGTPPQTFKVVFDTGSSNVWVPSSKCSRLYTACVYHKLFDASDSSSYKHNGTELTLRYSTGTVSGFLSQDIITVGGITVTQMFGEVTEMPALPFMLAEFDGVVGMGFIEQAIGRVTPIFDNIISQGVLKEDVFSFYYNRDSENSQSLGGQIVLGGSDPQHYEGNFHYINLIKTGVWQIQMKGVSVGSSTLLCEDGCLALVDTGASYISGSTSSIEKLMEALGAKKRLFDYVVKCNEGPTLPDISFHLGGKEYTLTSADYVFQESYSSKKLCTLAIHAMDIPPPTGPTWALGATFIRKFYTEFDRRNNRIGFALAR
Description: Renin fluorescence assay (internally quenched peptide substrate). The class given is biochemical. To be noted: compounds I*. The essentials:
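Compounds (1 nM–10 μM final, DMSO) were mixed with internally quenched angiotensinogen-sequence substrate in pH 7.0 BES/NaCl/BSA buffer, then 0.2-2 nM trypsin-activated human renin added. Rate from the linear fluorescence increase (340 nm excitation, 495 nm emission) over 60-360 min at rt, compared with uninhibited control.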
With `CNC[C@@H](NC(=O)N1CCC[C@@H]([C@@H](OCCNC(=O)OC)c2cccc(Cl)c2)C1)[C@@H](O)C1CCCC1` [I*-67a, methyl 2-((R)-(3-chlorophenyl)((R)-1-((1S,2R)-1-cyclopentyl-1-hydroxy-3-(methylamino)propan-2-ylcarbamoyl)piperidin-3-yl)methoxy)ethylcarbamate], the 50% inhibitory concentration (IC50) was < 10 nM. As for `COC(=O)NCCO[C@@H](c1cccc(Cl)c1)[C@@H]1CCCN(C(=O)NC[C@@H](N)C[C@H]2CCCCOC2)C1` [I*-68a, methyl 2-((R)-((R)-1-((S)-2-amino-3-((R)-oxepan-3-yl)propylcarbamoyl)piperidin-3-yl)(3-chlorophenyl)methoxy)ethylcarbamate], the IC50 was < 1 nM. In the case of `CNC[C@H](CC1CCOCC1)NC(=O)N1CCC[C@@H]([C@@H](OCCNC(=O)OC)c2cc(F)ccc2F)C1` [I*-69a, methyl 2-((R)-(2,5-difluorophenyl)((R)-1-((S)-1-(methylamino)-3-(tetrahydro-2H-pyran-4-yl)propan-2-ylcarbamoyl)piperidin-3-yl)methoxy)ethylcarbamate] it was < 50 nM; in that of `CNC[C@H](CC1CCOCC1)NC(=O)N1CCC[C@@H]([C@@H](OCCNC(=O)OC)c2cc(F)cc(F)c2)C1` [I*-70a, methyl 2-((R)-(3,5-difluorophenyl)((R)-1-((S)-1-(methylamino)-3-(tetrahydro-2H-pyran-4-yl)propan-2-ylcarbamoyl)piperidin-3-yl)methoxy)ethylcarbamate], < 20 nM; in that of `CNC[C@H](CC1CCOCC1)NC(=O)N1CCC[C@@H]([C@@H](OCCNC(=O)OC)c2cccc(F)c2F)C1` [I*-71a, methyl 2-((R)-(2,3-difluorophenyl)((R)-1-((S)-1-(methylamino)-3-(tetrahydro-2H-pyran-4-yl)propan-2-ylcarbamoyl)piperidin-3-yl)methoxy)ethylcarbamate], < 20 nM.

Turning to `CNC[C@@H](NC(=O)N1CCC[C@@H]([C@@H](OCCNC(=O)OC)c2cccc(F)c2F)C1)[C@@H](O)C1CCCC1` [I*-72a, methyl 2-((R)-((R)-1-((1S,2R)-1-cyclopentyl-1-hydroxy-3-(methylamino)propan-2-ylcarbamoyl)piperidin-3-yl)(2,3-difluorophenyl)methoxy)ethylcarbamate], the concentration for half-maximal inhibition (IC50) is < 10 nM. `COC(=O)NCCO[C@@H](c1cc(F)cc(F)c1)[C@@H]1CCCN(C(=O)NC[C@@H](N)C[C@H]2CCCCOC2)C1` [I*-73a, methyl 2-((R)-((R)-1-((S)-2-amino-3-((R)-oxepan-3-yl)propylcarbamoyl)piperidin-3-yl)(3,5-difluorophenyl)methoxy)ethylcarbamate]: the IC50 is < 10 nM. For the compound `CNC[C@H](CC12CC3CC(CC1C3)C2)NC(=O)N1CCC[C@@H]([C@@H](OCCNC(=O)OC)c2ccccc2)C1` [I*-74a, methyl 2-((R)-((3R)-1-((S)-1-(3-noradamantyl)-3-(methylamino)propan-2-ylcarbamoyl)piperidin-3-yl)(phenyl)methoxy)ethylcarbamate], the IC50 is < 20 nM. As to `CNC[C@H](CC1CCOCC1)NC(=O)N1CCO[C@@H]([C@@H](OCCNC(=O)OC)c2cccc(Cl)c2)C1` [I*-75a, methyl 2-((S)-(3-chlorophenyl)((R)-4-((S)-1-(methylamino)-3-(tetrahydro-2H-pyran-4-yl)propan-2-ylcarbamoyl)morpholin-2-yl)methoxy)ethylcarbamate], the IC50 was > 50 nM. Regarding `CNC[C@H](C[C@H]1CCC(=O)N(C)C1)NC(=O)N1CCC[C@@H]([C@@H](OCCNC(=O)OC)c2cccc(F)c2)C1` [I*-76a, methyl 2-((R)-(3-fluorophenyl)((R)-1-((S)-1-((R)-1-methyl-6-oxopiperidin-3-yl)-3-(methylamino)propan-2-ylcarbamoyl)piperidin-3-yl)methoxy)ethylcarbamate], the IC50 was > 50 nM. Under `CNC[C@H](C[C@H]1C[C@@H](C)O[C@@H](C)C1)NC(=O)N1CCC[C@@H]([C@@H](OCCNC(=O)OC)c2cccc(F)c2)C1` [I*-77a, methyl 2-((R)-((R)-1-((S)-1-((2S,4r,6R)-2,6-dimethyl-tetrahydro-2H-pyran-4-yl)-3-(methylamino)propan-2-ylcarbamoyl)piperidin-3-yl)(3-fluorophenyl)methoxy)ethylcarbamate] stands > 50 nM; under `CNC[C@H](CCC1(OC)CCCC1)NC(=O)N1CCC[C@@H]([C@@H](OCCNC(=O)OC)c2cccc(F)c2)C1` [I*-78a, methyl 2-((R)-(3-fluorophenyl)((R)-1-((S)-4-(1-methoxycyclopentyl)-1-(methylamino)butan-2-yl-carbamoyl)piperidin-3-yl)methoxy)ethylcarbamate], > 50 nM. Under `CNC[C@H](C[C@H]1CCCCOC1)NC(=O)N1CCC[C@@H]([C@@H](OCCNC(=O)OC)c2cc(F)ccc2C)C1` [I*-79a, methyl 2-((R)-(5-fluoro-2-methylphenyl)((R)-1-((S)-1-(methylamino)-3-((R)-oxepan-3-yl)propan-2-ylcarbamoyl)piperidin-3-yl)methoxy)ethylcarbamate] stands < 10 nM. Turning to `CNC[C@H](CC1CCC(=O)CC1)NC(=O)N1CCC[C@@H]([C@@H](OCCNC(=O)OC)c2cccc(Cl)c2)C1` [I*-80a, methyl 2-((R)-(3-chlorophenyl)((R)-1-((S)-1-(methylamino)-3-(4-oxocyclohexyl)propan-2-ylcarbamoyl)piperidin-3-yl)methoxy)ethylcarbamate], the concentration for half-maximal inhibition (IC50) was < 10 nM. Under `CN[C@H](C)[C@H](CC1CCCCC1)NC(=O)N1CCC[C@@H]([C@@H](OCCNC(=O)OC)c2cccc(Cl)c2)C1` [I*-82a, methyl 2-((R)-(3-chlorophenyl)((R)-1-((2S,3R)-1-cyclohexyl-3-(methylamino)butan-2-ylcarbamoyl)piperidin-3-yl)methoxy)ethylcarbamate] stands < 1 nM; under `CC[C@@H](N)[C@H](CC1CCCCC1)NC(=O)N1CCC[C@@H]([C@@H](OCCNC(=O)OC)c2cccc(Cl)c2)C1` [I*-83a, methyl 2-((R)-((R)-1-((2S,3R)-3-amino-1-cyclohexylpentan-2-ylcarbamoyl)piperidin-3-yl)(3-chlorophenyl)methoxy)ethylcarbamate], < 1 nM.

Turning to `CNC[C@H](CC1CCCCCC1)NC(=O)N1CCC[C@@H]([C@@H](OCCNC(=O)OC)c2cccc(Cl)c2)C1` [I*-84a, methyl 2-((R)-(3-chlorophenyl)((R)-1-((S)-1-cycloheptyl-3-(methylamino)propan-2-ylcarbamoyl)piperidin-3-yl)methoxy)ethylcarbamate], the IC50 was < 1 nM. Take `CNC[C@H](CC1CCCCC1)NC(=O)N1CCC[C@@H]([C@@H](OCCNC(=O)OC)c2cc(Cl)ccc2C)C1` [I*-85a, methyl 2-((R)-(5-chloro-2-methylphenyl)((R)-1-((S)-1-cyclohexyl-3-(methylamino)propan-2-ylcarbamoyl)piperidin-3-yl)methoxy)ethylcarbamate]: the IC50 was < 1 nM.

Consider `CNC[C@H](CC1CCC(C)CC1)NC(=O)N1CCC[C@@H]([C@@H](OCCNC(=O)OC)c2cccc(Cl)c2)C1` (stereo partly drawn) [I*-86a, methyl 2-((R)-(3-chlorophenyl)((R)-1-((S)-1-(methylamino)-3-(4-methylcyclohexyl)propan-2-ylcarbamoyl)piperidin-3-yl)methoxy)ethylcarbamate], for which the IC50 was < 1 nM.

On to `CNC[C@H](CC1CCCCC1)NC(=O)N1CCC[C@@H]([C@@H](OCC(C)NC(=O)OC)c2cccc(Cl)c2)C1` (stereo partly shown) [I*-87a], for which the IC50 was < 50 nM.

On to `CCNC[C@H](CC1CCCCC1)NC(=O)N1CCC[C@@H]([C@@H](OCCNC(=O)OC)c2cccc(Cl)c2)C1` [I*-88a, methyl 2-((R)-(3-chlorophenyl)((R)-1-((S)-1-cyclohexyl-3-(ethylamino)propan-2-ylcarbamoyl)piperidin-3-yl)methoxy)ethylcarbamate], for which the IC50 was < 1 nM. In the case of `CNC[C@@H](CC1(C)CCCCC1)NC(=O)N1CCC[C@@H]([C@@H](OCCNC(=O)OC)c2cccc(Cl)c2)C1` [I*-89a, methyl 2-((R)-(3-chlorophenyl)((R)-1-((R)-1-(methylamino)-3-(1-methylcyclohexyl)propan-2-ylcarbamoyl)piperidin-3-yl)methoxy)ethylcarbamate] it was > 50 nM; in that of `CNC[C@H](CC1(C)CCCCC1)NC(=O)N1CCC[C@@H]([C@@H](OCCNC(=O)OC)c2cccc(Cl)c2)C1` [I*-90a, methyl 2-((R)-(3-chlorophenyl)((R)-1-((S)-1-(methylamino)-3-(1-methylcyclohexyl)propan-2-ylcarbamoyl)piperidin-3-yl)methoxy)ethylcarbamate], < 1 nM. Under `CNC[C@H](CC1CCCCC1)NC(=O)N1CCCC[C@@H]([C@@H](OCCNC(=O)OC)c2cccc(Cl)c2)C1` [I*-91a, methyl 2-((R)-(3-chlorophenyl)((R)-1-((S)-1-cyclohexyl-3-(methylamino)propan-2-ylcarbamoyl)azepan-3-yl)methoxy)ethylcarbamate] stands < 10 nM; under `CNC[C@H](CC1CCCCC1)NC(=O)N1CCCC[C@@H]([C@H](OCCNC(=O)OC)c2cccc(Cl)c2)C1` [I*-92a, methyl 2-((S)-(3-chlorophenyl)((R)-1-((S)-1-cyclohexyl-3-(methylamino)propan-2-ylcarbamoyl)azepan-3-yl)methoxy)ethylcarbamate], > 50 nM.
